“And” between values parts separate entries of the source, which are not always exact repeats. Identical values can stand only once. Counter-ions that a name gives are not always drawn. Like-named read-outs stand apart in the source and are kept apart here.
Assays:
BACE1 = target: T1, BACE1 (Homo sapiens, UniProt P56817); assay: in vitro BACE inhibition assay (Primary BACE1 IC50); type: biochemical
T1 construct: purchased R&D 931-AS-050
From the text: (§1) ABBI Assay: APP Binding BACE Inhibitor (ABBI) activity of any of the compounds described herein can readily be verified using, for example, assays described herein. Basically, in certain embodiments a pair the assays are utilized to identify ABBI compounds that inhibit BACE cleavage of the MBP-C125 APP substrate, resulting in the inhibition of the production of C99 and the β-site peptide substrate (P5-P5′) and also interacts with APP, for example, as measured by surface plasmon resonance (SPR) analysis. In one illustrative embodiment, an MBP-C125 APP695 wt fusion protein can be used as one of the substrates and the second substrate can be the commercially available P5-P5′ fluorescence substrate.

[1] = pharmacokinetics, brain level (Cmax brain); type: in vivo
From the text: As is readily apparent, not all compounds were equally able to cross the blood brain barrier, but most compounds did reach pharmacologically meaningful levels given their low IC50 values. FIG. 5A provides a further exemplary compound (FAH65) and FIG. 5B depicts dose response data for Aβ1-42 production in a cell based system. Further shown are effects observed with regard to Aβ1-42 production, sAPPβ and sAPPα formation. […] Here, data are presented for oral and subcutaneous administration (SQ) at dosages of 10- and 30 mg/kg. […] Once more, it should be noted that these exemplary compounds are preferential towards APP in BACE inhibition as can be taken from the data for Aβ1-42, sAPPβ, and sAPPα formation.

solubility (Sol) = type: physicochemical; conditions: Table 3; in words
[2] = tested on: CHO-7W cells that were stably transfected with human APP (wildtype); assay: Secondary cell-based APP processing assay (sAPPalpha, sAPPbeta, Abeta 1-42); conditions: for Aβ1-42 peptide formation / production: cell based; for preference (selectivity) towards APP in BACE inhibition: from Aβ1-42, sAPPβ and sAPPα formation
From the text: Cellular Assays: Numerous cell-based assays can be used to evaluate the activity of agent(s) of interest on relative alpha-secretase activity to beta-secretase activity and/or processing of APP to release amyloidogenic versus non-amyloidogenic oligomers.
Human cell lines that normally process Aβ from APP provide a useful means to assay inhibitory activities of the agent(s). Production and release of Aβ and/or other cleavage products into the culture medium can be measured, for example by immunoassay, such as Western blot or enzyme-linked immunoassay (EIA) such as by ELISA.
Relative activity of the alpha-secretase to the beta-secretase can be measured by analysis of one or more cleavage products of the APP substrate. For example, inhibition of beta-secretase activity against the substrate APP would be expected to decrease release of specific beta-secretase induced APP cleavage products such as Aβ (e.g., Aβ40 or Aβ42), sAPPβ and APPneo. Promotion or enhancement of alpha-secretase activity against the substrate APP would be expected to increase release of specific alpha-secretase induced APP cleavage products such as sAPPα and p3 peptide.
In such assays, for example, the cells expressing APP, alpha-secretase and/or beta-secretase are incubated in a culture medium under conditions suitable for alpha-secretase and/or beta-secretase enzymatic activity at its cleavage site on the APP substrate. On exposure of the cells to the agent(s), the amount of Aβ released into the medium and/or the amount of CTF99 fragments of APP in the cell lysates is reduced as compared with the control. The cleavage products of APP can be analyzed, for example, by immune reactions with specific antibodies, as discussed above.

[3] = PAMPA parallel artificial membrane permeability assay; type: in vitro ADME; conditions: Table 4
APP = target: T2, APP (Homo sapiens, UniProt P05067); assay: APP binding (APP Kd), surface plasmon resonance
T2 construct: made in house
From the text: as §1, with “substrate. […]” for “substrate.”

[4] = Table 4, several values in a cell = several determinations, read-out: BACE1 IC50
[5] = Tables 1 and 2, read-out: Primary BACE1 IC50
[6] = Table 2, one cell for the whole line

T1 sequence (P56817 46-457 limits assumed): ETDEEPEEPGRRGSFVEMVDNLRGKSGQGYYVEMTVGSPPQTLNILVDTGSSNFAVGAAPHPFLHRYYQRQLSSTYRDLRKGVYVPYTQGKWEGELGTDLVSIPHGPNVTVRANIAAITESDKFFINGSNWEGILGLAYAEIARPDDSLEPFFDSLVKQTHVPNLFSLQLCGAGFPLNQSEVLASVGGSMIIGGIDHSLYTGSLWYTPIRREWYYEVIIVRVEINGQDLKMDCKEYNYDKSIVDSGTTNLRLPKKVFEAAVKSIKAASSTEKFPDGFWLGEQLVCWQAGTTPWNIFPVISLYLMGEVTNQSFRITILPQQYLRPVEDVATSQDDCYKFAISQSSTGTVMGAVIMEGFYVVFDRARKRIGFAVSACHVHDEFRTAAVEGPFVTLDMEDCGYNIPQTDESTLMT
T2 sequence (P05067 230-624 isoform P05067-4): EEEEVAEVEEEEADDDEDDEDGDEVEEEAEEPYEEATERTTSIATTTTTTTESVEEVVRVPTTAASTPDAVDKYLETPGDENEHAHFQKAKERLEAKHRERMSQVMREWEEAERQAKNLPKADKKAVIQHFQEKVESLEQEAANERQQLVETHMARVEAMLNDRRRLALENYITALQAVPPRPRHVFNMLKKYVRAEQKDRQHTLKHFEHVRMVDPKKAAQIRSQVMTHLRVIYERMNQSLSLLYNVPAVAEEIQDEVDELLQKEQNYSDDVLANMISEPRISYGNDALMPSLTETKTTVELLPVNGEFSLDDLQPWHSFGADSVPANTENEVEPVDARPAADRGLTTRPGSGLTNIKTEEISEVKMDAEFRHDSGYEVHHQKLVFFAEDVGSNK

IC50 (BACE1; [4]) | IC50 (BACE1; [5]) | SMILES | further results
1800 nM |  | COc1ccc(C2(c3cc(F)cc(F)c3)N=C(N)N(C)C2=O)cn1 (stereo not shown) [FAH-11] | 
1600 nM | 1200 nM | Cc1cc(C2(c3ccnc(F)c3)N=C(N)N(C)C2=O)ccc1OC(F)F (stereo not shown) [FAH-46] | Cmax brain ([1]; 10 mg/kg 5Q): ~0.3 µM; Cmax brain ([1]; 30 mg/kg): 1.3 μM @ 30 mL; Sol (solubility (Sol)): good; IC50 (BACE1; Table 3, read-out: IC50): ~1200 nM
1900 nM | 2000 nM | COCc1cc(C2(c3ccc(OC(F)F)c(C)c3)N=C(N)N(C)C2=O)ccn1 (stereo not shown) [FAH-53] | 
1500 nM and 750 nM | 1500 nM | Cc1cc(C2(C3CCCCC3)N=C(N)N(C)C2=O)ccc1OC(F)F (stereo not shown) [FAH-59] | Toxicity in secondary cell assay [2, 6]: Toxic
 |  | Cc1cc(C2(c3cc(-c4cccnc4)ccn3)N=C(N)N(C)C2=O)ccc1OC(F)F (stereo not shown) [FAH-65] | Aβ1-42 peptide formation / production ([2]; in words): strongly reduces; preference (selectivity) towards APP in BACE inhibition ([2]; in words): clear preference towards APP
2300 nM |  | COc1ccc(C2(c3ccc(F)cc3F)N=C(N)N(C)C2=O)cc1C (stereo not shown) [FAH-08] | 
380 nM | 380 nM | Cc1cc(C2(c3cccc(C(F)(F)F)c3)N=C(N)N(C)C2=O)ccc1OC(F)F (stereo not shown) [FAH-28] | 
2730 nM |  | Cc1cc(C2(c3ccncc3)N=C(N)N(C)C2=O)ccc1OC(F)F (stereo not shown) [FAH-78] | 
960 nM |  | Cc1cc(C2(c3cc(F)c(F)c(F)c3)N=C(N)N(C)C2=O)ccc1OC(F)F (stereo not shown) [FAH-19] | 
1180 nM |  | CNCCc1cccc(C2(c3ccc(OC(F)F)c(C)c3)N=C(N)N(C)C2=O)c1 (stereo not shown) [FAH-63] | PAMPA [3]: 0.36
1500 nM |  | CN1C(=O)C(c2cc(F)cc(F)c2)(c2ccc(F)c(F)c2)N=C1N (stereo not shown) [FAH-14] | 
130 nM | 130 nM | Cc1cccc(C2(c3ccc(OC(F)F)c(C)c3)N=C(N)N(C)C2=O)c1 (stereo not shown) [FAH-27] | 
11000 nM |  | Cc1cc(C2(c3cccc(C(C)C)c3)N=C(N)N(C)C2=O)ccc1OC(F)F (stereo not shown) [FAH-29] | 
 | 2000 nM | Cc1cc(C2(c3cnn(C)c3)N=C(N)N(C)C2=O)ccc1OC(F)F (stereo not shown) [30 HCl] | 
570 nM | 570 nM | Cc1cc(C2(c3cc(F)cc(Cl)c3)N=C(N)N(C)C2=O)ccc1OC(F)F (stereo not shown) [FAH-25] | 
1400 nM |  | COc1ccc(C2(c3cc(C)c(F)cc3F)N=C(N)N(C)C2=O)cc1C (stereo not shown) [FAH-09] | 
4800 nM | 4800 nM | COc1cc(C2(c3ccc(OC(F)F)c(C)c3)N=C(N)N(C)C2=O)ccn1 (stereo not shown) [FAH-48] | 
2130 nM and 9200 nM |  | CN1C(=O)C(c2ccc(OC(F)F)cc2)(c2cc(F)cc(F)c2)N=C1N (stereo not shown) [FAH-02] | 
2230 nM and 3500 nM |  | CN1C(=O)C(c2cc(F)cc(F)c2)(c2cccc(OC(F)F)c2)N=C1N (stereo not shown) [FAH-04] | 
10 nM |  | CN1C(=O)C(c2ccc(OC(F)F)cc2)(c2cccc(-c3cncnc3)c2)N=C1N (stereo not shown) [FAH-74] | IC50 (BACE1; in vitro BACE inhibition assay, FIG. 8, read-out: IC50): 9 nM

IC50 (BACE1; [4]) | IC50 (BACE1; [5]) | SMILES | further results
600 nM and 4100 nM |  | COc1ccc(C2(c3cc(F)cc(F)c3)N=C(N)N(C)C2=O)cc1C (stereo not shown) [FAH-06] | 
 | 5300 nM | Cc1cc(C2(c3cncc(F)c3)N=C(N)N(C)C2=O)ccc1OC(F)F (stereo not shown) [FAH-37] | Cmax brain ([1]; (IP), no unit in the cell, neighbours μM): ~0.11 (IP); Sol (solubility (Sol)): good; IC50 (BACE1; Table 3, read-out: IC50): ~5300 nM; reducing BACE activity in vitro (BACE1; in words, FIG. 2B): less effective
15300 nM | > 10000 nM | Cc1cc(C2(c3cocn3)N=C(N)N(C)C2=O)ccc1OC(F)F (stereo not shown) [FAH-38] | Secondary (sAPPalpha, sAPPbeta, sAPP(α/β), Abeta 1-42, sAPPa/Aβ) [2, 6]: unchanged
370 nM | 600 nM | CNCc1cccc(C2(c3ccc(OC(F)F)c(C)c3)N=C(N)N(C)C2=O)c1 (stereo not shown) [FAH-62] | Sol (solubility (Sol)): excellent; IC50 (BACE1; Table 3, read-out: IC50): ~60 nM
2000 nM |  | CN1C(=O)C(c2cc(F)cc(F)c2)(c2ccnc(F)c2)N=C1N (stereo not shown) [FAH-15] | 
70 nM and 50 nM | 70 nM | Cc1cc(C2(c3cccc(-c4cccnc4)c3)N=C(N)N(C)C2=O)ccc1OC(F)F (stereo not shown) [FAH-32] | sAPPα formation ([2]; in words, FIG. 1D): increased sAPPα formation as compared to FAH17; sAPPβ formation ([2]; in words, FIG. 1D): reduced as compared to FAH17; Aβ1-42 peptide formation / production ([2]; in words): substantially reduced; preference (selectivity) towards APP in BACE inhibition ([2]; in words): higher selectivity of FAH32 towards APP; Cmax brain ([1]; 10 mg/kg 5Q): <0.02 µM; Sol (solubility (Sol)): Sol: good; IC50 (BACE1; Table 3, read-out: IC50): ~60 nM
2300 nM and 2700 nM |  | Cc1cc(C2(c3cccc(F)c3)N=C(N)N(Cc3ccccc3)C2=O)ccc1OC(F)F (stereo not shown) [FAH-42] | 
870 nM |  | Cc1cc(C2(c3cccc(-c4ccccc4)c3)N=C(N)N(C)C2=O)ccc1OC(F)F (stereo not shown) [FAH-73] | 
17600 nM |  | Cc1cc(C2(C3CCNCC3)N=C(N)N(C)C2=O)ccc1OC(F)F (stereo not shown) [FAH-79] | 
 |  | Cc1cc(F)cc(C2(c3ccc(OC(F)F)c(C)c3)N=C(N)N(C)C2=O)c1 (stereo not shown) [FAH-22] | sAPPbeta ([2]; Secondary (1st test, n = 3), ↓ = decrease): ↓>20%
320 nM | 320 nM | Cc1cc(C2(c3cccc(Cl)c3)N=C(N)N(C)C2=O)ccc1OC(F)F (stereo not shown) [FAH-23] | 
240 nM |  | CC#Cc1cc(C2(c3ccc(OC(F)F)c(C)c3)N=C(N)N(C)C2=O)ccn1 (stereo not shown) [FAH-57] | 
2670 nM and 4700 nM |  | CN1C(=O)C(c2ccccc2)(c2cc(F)cc(F)c2)N=C1N (stereo not shown) [FAH-01] | 
14900 nM |  | CCCC1CC(C2(c3ccc(OC(F)F)c(C)c3)N=C(N)N(C)C2=O)CCN1 (stereo not shown) [FAH-81] | 
6460 nM |  | Cc1cc(C)cc(C2(c3cc(F)cc(F)c3)N=C(N)N(C)C2=O)c1 (stereo not shown) [FAH-05] | 
2600 nM |  | COc1ccc(C2(c3cc(F)cc(F)c3)N=C(N)N(C)C2=O)cc1F (stereo not shown) [FAH-12] | 
1670 nM |  | CCCc1cc(C2(c3ccc(OC(F)F)c(C)c3)N=C(N)N(C)C2=O)ccn1 (stereo not shown) [FAH-80] | 
1400 nM | 1400 nM | Cc1cc(C2(c3ccc(OC(F)F)c(C)c3)N=C(N)N(C)C2=O)ccn1 (stereo not shown) [FAH-47] | 
2000 nM |  | Cc1cc(C2(c3cnn(C)c3)N=C(N)N(C)C2=O)ccc1OC(F)F (stereo not shown) [FAH-30] | 
1600 nM |  | Cc1cc(C2(c3cc(F)cc(F)c3)N=C(N)N(C)C2=O)ccc1F (stereo not shown) [FAH-10] | 

SMILES | IC50 (BACE1; [4]) | IC50 (BACE1; [5]) | further results
COCc1cccc(C2(c3ccc(OC(F)F)c(C)c3)N=C(N)N(C)C2=O)c1 (stereo not shown) [FAH-44] | 300 nM and 50 nM | 300 nM | sAPPalpha ([2]; Secondary (1st test, n = 3), ↑ = increase): ↑>10%; Cmax brain ([1]; 10 mg/kg 5Q): ~0.2 µM; Sol (solubility (Sol)): med; IC50 (BACE1; Table 3, read-out: IC50): ~25 nM
Cc1cc(C2(c3cc(F)cc(F)c3)N=C(N)N(C)C2=O)ccc1OC(F)F (stereo not shown) [FAH-03] |  | 530 nM | Kd (APP): ~300 nM
Cc1cc(C2(c3cccc(F)c3)N=C(N)N(C)C2=O)ccc1OC(F)F (stereo not shown) [FAH-17] |  | 150 nM | Cmax brain ([1]; 10 mg/kg 5Q): ~0.3 µM; Sol (solubility (Sol)): med; IC50 (BACE1; Table 3, read-out: IC50): ~100 nM
Cc1cc(C2(c3cncnc3)N=C(N)N(C)C2=O)ccc1OC(F)F (stereo not shown) [FAH-33] | 10000 nM | 10000 nM | 
